Literature values as cited in patent publication US20030130231A1, “2:1 Complex of beta- or gamma-cyclodextrin and alpha-tocopherol” (WACKER-CHEMIE GmbH, priority 2002, published 2003).
Like-named read-outs stand apart in the source and are kept apart here.

Assays:
[1] = cited from earlier work
[2] = cited from earlier work; remark: listed apart in the source

Q: For `Cc1c(C)c2c(c(C)c1O)CC[C@@](C)(CCC[C@H](C)CCC[C@H](C)CCCC(C)C)O2` [α-tocopherol], which “solubility in water” value [1] is on record?
A: insoluble in water

Q: What about the “can be kept in the original packaging” value ([2]; stored at 5° C.) of the same compound?
A: up to 24 months

Q: And the “can be kept in the original packaging” value ([2]; stored at room temperature)?
A: ≤ 12 months
